In data set [1] the test system is organotypic cerebellar slice cultures. As to the kind of experiment: LPC-induced demyelination in mouse cerebellar slice cultures. Type of data set: cell-based. From the text:
We carried out the cerebellar slice culture method as described previously (Zhang, H., et al. Central nervous system remyelination in culture—A tool for multiple sclerosis research. Experimental Neurology 230, 138-148 (2011)). Briefly, 300 μm-thick cerebellar slices were cut from P10-12 mouse cerebellum using a Leica vibrating microtome (Leica, VT1000S) and cultured in medium containing 50% basal medium eagle medium, 25% Heat-inactivated horse serum, 25% Hank's solution, 2.5% glucose, 1% glutamine and penicillin-streptomycin. After 4 days in vitro (DIV), 0.5 mg/ml LPC were added for 17-18h to induce demyelination. Slices were then incubated with 2.5 μM ISP for 8 days. For GM6001 experiments, 25 μM GM6001 (Tocris) and/or 2.5 μM ISP or SISP was incubated for 9 days. Remyelination was examined by semi-quantitative Western blot of MBP and immunofluorescence stain of MBP and NeuF200.
Slices were fixed with 4% PFA, delipidated, and washed three times in PBS, blocked in PBS containing 0.1% Triton X-100 and 5% normal goat serum and incubated with anti-MBP (SMI-99P, Covance, 1:300), and anti-NeuF200 (N4142, Sigma, 1:250) antibodies overnight at 4° C. The slices were then washed in PBS and incubated in Alexa Fluor-conjugated secondary antibodies (1:500, invitrogen) for 2h. Slices were mounted in Vectashield mounting medium with DAPI (Vector Laboratories) and analyzed using Leica DFC500 fluorescence microscope.

Data set [2] has as its system oligodendrocyte progenitor cells (OPCs). As to the kind of experiment: CSPG gradient crossing (spot) assay, OPC migration. Type of data set: cell-based, mouse. The protocol: (§1) CSPG gradients were prepared as described previously (Tom, V. J., et al. Studies on the Development and Behavior of the Dystrophic Growth Cone, the Hallmark of Regeneration Failure, in an In vitro Model of the Glial Scar and after Spinal Cord Injury.). 24-well glass coverslip were coated with poly-L-lysine and nitrocellulose, and a mixture of 700 μg/mL aggrecan (A1960 Sigma) and 10 μg/mL laminin (11243217001 Sigma) spotted on the coated coverslip. After drying, coated coverslips were then incubated with laminin at 37° C. for 3h. Purified OPCs were plated at a density of 10,000/coverslip and cultured in DMEM/F12 medium containing with N2, PDGF (20 ng/ml), FGF (20 ng/ml), NT-3 (5 ng/ml), CNTF (O1 ng/ml), Glutamine (200 mM). Coverslips were stained with CS-56 (C8035, Sigma, 1:500) and O4 antibodies (Hybridoma Core Cleveland Clinic, 1:10). O4-positive cells crossing the aggrecan border were counted for each spot. For CSPG gradient quantification, 1×10^6 OPCs were plated per well on PLL, 1 μg/mL laminin, and 2 μg/mL aggrecan coated 6-well plates. OPCs treated with vehicle, 2.5 μM ISP, or 2.5 μM SISP for 2 days at 37° C. CM was harvested and incubated with freshly made spots. Spots were incubated with CM for 2 days at 37° C. then stained with CS-56 and laminin (L9393, Sigma, 1:1000) antibodies and consistently imaged. Using ImageJ software (NIH), pixel intensities of the CS-56 or laminin spot rims were quantified using the same ROI. For cultured spinal cord explant, the spinal cords of cervical and thoracic of P1 mouse pups were chopped into 1-2 mm tissue pieces and transferred to the coverslip. Explants were cultured in DMEM/F12 medium with 15% FBS (Hyclone), O1 ng/ml PDGF (Sigma) and N2 supplement (Invitrogen). For ISP treatment, 2.5 uM ISP was added to the media at the time of plating. 25 μM GM6001 (2983, Tocris), 100 nM MMP-2 inhibitor (444244, Calbiochem), and/or 2.5 μM ISP or SISP was used.

Data set [3] has as its system aggrecan (CS56). As to the kind of experiment: CSPG degradation by OPC conditioned media (CS56 spot quantification and western blot of aggrecan). Type of data set: cell-based, mouse. The procedure: as §1
CM was harvested from 1×10^6 OPCs incubated on PLL, 1 μg/mL laminin, and 2 μg/mL aggrecan coated 6-well plates. OPCs were treated with vehicle, 2.5 μM ISP, or 2.5 μM SISP in conjunction with 10 μg/mL Exo1 (ab120292, Abcam), or 25 μM GM6001 (364205, Calbiochem) for 2 days at 37° C. […] CM of each cell-strained group was incubated with 20 μg/mL aggrecan and/or 10 μg/mL laminin for 2 hours in lmL Eppendorf tubes at 37° C. As a positive control, OPC media was incubated with aggrecan and incubated in the same fashion. Western blots were then performed as described below with incubation against CS-56 and/or laminin antibodies.
For orientation: Immunoblotting shows a protein as a band on a membrane.

Data set [4] relates to oligodendrocyte progenitor cells (OPCs). As to the kind of experiment: Ki-67 proliferation and TUNEL apoptosis of OPCs on aggrecan/laminin. Type of data set: cell-based, mouse. The protocol: To assess proliferation, OPCs were plated on 24-well coverslips that were precoated with PLL, 1 μg/mL laminin, and 2 μg/mL aggrecan. OPCs were treated with vehicle, 2.5 μM ISP or SISP immediately upon plating for 2 days at 37° C. Coverslips were fixed and stained using the same method described in the immunocytochemistry section with Ki-67 (550609, BD Pharmingen, 1:500) and O4 (1:10). Coverslips were imaged and counted. To assess apoptosis, OPCs were cultured in the same fashion and incubated with vehicle or 1 μg/mL LPC for 2 hours at 2 days following vehicle, 2.5 μM ISP or SISP incubation. Coverslips were then fixed with PFA and methanol then stained using APO-BrdU TUNEL assay kit (A23210, ThermoFisher) and guidelines with an O/N incubation of the primary antibody at RT. Coverslips were additionally costained with DAPI (D9542, Sigma, 1:10,000) then imaged and counted.

As to `CCCCCCCC/C=C\CCCCCCCC(=O)NO` [OA-Hy, reference compound], the “colocalization of MBP and neurofilament+ axons” value in data set [1] (25 μM GM6001 or 100 nM OA-Hy in conjunction with 2.5 μM ISP, 9 days) is reported as “decreased”. Moreover, the “OPC entry into the CSPG-rich area” value in data set [2] (25 μM GM6001 or 100 nM OA-Hy, even in the presence of ISP) is reported as “effectively halted OPC entry”. In data set [3] (25 μM GM6001 or 100 nM OA-Hy with 2.5 μM ISP), the CS56 spot degradation entry is listed as “additionally rescued CS56 spot degradation”. Moreover, the “aggrecan GAG digestion (CS56 immunoblot)” value in data set [3] (Exo1 10 μg/mL, GM6001 25 μM or OA-Hy 100 nM with 2.5 μM ISP) is recorded as “partially rescued”. Besides, the “apoptosis (TUNEL) following LPC treatment” value in data set [4] (100 nM OA-Hy with ISP, LPC 1 μg/mL 2 hours, vs LPC-ISP) was “increased apoptosis”. Besides, the “TUNEL+ cells/total cells” value in data set [4] (100 nM OA-Hy, 2 days in vitro, no LPC) is “did not significantly increase”.

Regarding “GRKKRRQRRRCDMAEHMERLKANDSLKLSQEYESI [ISP]”, in data set [1] (2.5 μM ISP for 9 days after LPC, vs control), the MBP-neurofilament colocalization result is “significantly increased”. In data set [1] (2.5 μM ISP, 8 div after LPC, vs vehicle), the “remyelination (MBP and NF200 colocalization)” value is listed as “increased remyelination”. In data set [1] (4 div), the “aggrecan (Cat301) expression vs vehicle” value is recorded as “similar”. For the same compound, the “aggrecan (Cat301) presence” value in data set [1] (8 div) is “decrease in aggrecan presence”. In data set [1] (14 div), the “CSPG expression vs vehicle” value is “greater CSPG decrease”. In addition, the “remyelination (MBP and NF200 colocalization, western blot)” value in data set [1] (ISP, 14 div after LPC) is “abundant remyelinated axons”. The “O4+ OPCs crossing the CSPG barrier” value in data set [2] (purified OPCs, 2.5 μM ISP vs control) is reported as “significantly induced greater O4+ OPC migration”. In addition, the “CS56 immunoblot of aggrecan incubated with OPC CM” value in data set [3] (2.5 μM ISP, aggrecan 20 μg/mL) is given as “significant CS56 degradation”. In data set [3] (CM of OPCs treated with 2.5 μM ISP, vs vehicle, SISP and no cell control), the “CS56 expression of aggrecan/laminin spots” value is reported as “significantly reduced CS56 expression”. In addition, the “CS56 band, western blot” value in data set [3] (ISP at 2.5 and 5 μM doses vs control) is listed as “significant ISP-treated CS56 degradation”. In addition, the “aggrecan digestion, dependence on ISP dose (western blot)” value in data set [3] (varying doses of ISP, aggrecan 20 μg/mL, 2 hours) is recorded as “dose-dependent manner”. In data set [4] (2.5 μM peptide, 2 div, laminin 1 and aggrecan 2 μg/mL, vs control), the “OPC proliferation (Ki67)” value is recorded as “no significant differences”. Besides, the “OPC death (TUNEL) after LPC challenge” value in data set [4] (LPC 1 μg/mL, 2 hours, 2.5 μM ISP) was “decreased OPC death”. For the same compound, the “percentage of apoptotic cells (TUNEL)” value in data set [4] (OPCs on low laminin and aggrecan, 2.5 μM ISP) is given as “decreased the percentage of apoptotic cells”.
